Entries after “also recorded” stand apart in the source; their conditions may differ.
Columns and labels:
[1] = cited from earlier work; for reducing strength: reduction of a disulfide bond
pKa of the dithiol = type: physicochemical
Source text: (§1) The following is taken from Lamoureux and Whitesides, 58 J. Org. Chem. 633, 1993, hereby incorporated by reference herein. The general methodology and equations used for analysis are presented there, and are not repeated here.

[2] = thiol/disulfide equilibrium (reduction strength) relative to oxidized mercaptoethanol
Source text: In addition to a fast rate of reduction, a useful dithiol should be strongly reducing in order to reduce disulfides quantitatively and to maintain thiols in the reduced state without the inconvenience of mixed disulfides. […] We have used this equilibrium to evaluate several dithiols in terms of their reduction strength.
as §1

[3] = stability of aqueous solution of the dithiol; type: physicochemical; settings: over several days, protected from atmospheric oxygen

Compound	rate of reduction (in words), pH=7 ([1]; pH=7, background statement)	reducing strength ([1]; background statement)	pKa (pKa of the dithiol)	equilibrium constant relative to oxidized mercaptoethanol [2]	signs of decomposition of aqueous solution [3]	rate of reduction (in words) ([1]; background statement, pH not given)
O[C@H](CS)[C@H](O)CS (racemic) [DTT, Dithiothreitol]	kinetically slow	strong reductant; also recorded: one of the most strongly reducing dithiols	–	–	–	–
O=S(=O)(CCS)CCS [bis(2-mercaptoethyl) sulfone, Bis(2-mercaptoethyl) sulfone]	–	–	~7.9	about 63	no signs of decomposition	–
OCCS [Mercaptoethanol]	–	weak	–	–	–	slow

Source: US5460806A, “Bis(2-mercaptoethyl) sulfone” (President and Fellows of Harvard College, priority 1993, dated 1995)
